Test results: PubChem BioAssay AID1508591

Settings: rat; liver microsomes; pH 7.4; 15.0 min; 1.0 µM

SMILES	half-life [min]
Cc1cc(NS(=O)(=O)c2ccc(C(=O)NCc3ccc(Cl)c(Cl)c3)cc2)no1	> 30
CN1C(=O)c2ccccc2[S@](=O)c2ccc(C(=O)NCCc3cccs3)cc21	7.2
Cc1cccc(-c2cc(NC(=O)c3ccccc3C)n(-c3ccccc3)n2)c1	3.18
CCCCn1cnc2cc(NC(=O)c3cc(OC)c(OC)c(OC)c3)ccc21	> 30
O=C(Nc1cn[nH]c1-c1nc2ccc(CN3CCOCC3)cc2[nH]1)NC1CC1	> 30
COc1cccc(CNc2ccc(S(=O)(=O)Nc3cccc(N4CCNCC4)c3)cc2)c1O	> 30
CC(=O)c1ccc(N2CCN(S(=O)(=O)c3ccc4c(c3)n(C)c(=O)n4C)CC2)cc1	> 30
Cc1nn(CCc2nc(-c3ccccc3F)cs2)c2[nH]c(=O)cc(C(F)(F)F)c12	9.3
O=C1Cc2cc(C(=O)c3ccco3)ccc2N1	20
O=C(Nc1nc(-c2ccc(F)cc2)cs1)c1ccncc1NS(=O)(=O)c1ccccc1Cl	> 30
Cc1cccc(C(=O)Nc2ccc(N3CCC(N4CCCCC4)CC3)c(C(=O)O)c2)c1	> 30
C[C@@H]1Cc2c([nH]c3cc(Cl)c(F)cc23)[C@]2(N1)C(=O)Nc1ccc(Cl)cc12	> 30
O=C(NC1CCCN(c2cc(-c3ccc(F)cc3)[nH]n2)C1)c1ccc2ncccc2c1 (stereo not drawn)	16.2
Cc1cc(SCc2sc(-c3ccc(C(F)(F)F)c(F)c3)nc2C)ccc1OCC(=O)O	21
Cc1ccc(S(=O)(=O)Nc2cccc(C(=O)Nc3nc(-c4ccc(Cl)cc4)cs3)c2)cc1	23
O=C(Nc1ncccc1O)c1ccc(S(=O)(=O)Nc2ccccc2)cc1	2.58
CCc1ccc(NC(=O)c2[nH]c(C)c(C(C)=O)c2C)cc1[S+](=O)([O-])Nc1ccccc1C#N	> 30
COc1cc2c(Oc3ccc(-c4cnc(Nc5ccc(F)cc5)n(C)c4=O)cc3F)ccnc2cc1OCCCN1CCOCC1	> 30
Clc1ccc(C2=Nn3c(nnc3-c3ccncc3)SC2)cc1	9.1
CCCc1c(CC)c(=N)c2ccccc2n1C	> 30
COCCNC(=O)c1ccc(Cn2c(=S)[nH]c3cc4c(cc3c2=O)OCO4)cc1	> 30
Clc1ccccc1Nc1nc(-c2ccncc2)nc2ccccc12	11
COc1ccc(-c2ccc3nc(-c4cc(F)ccc4F)oc3c2)c(OC)c1OC	> 30
CC(C)Nc1oc(-c2cccc3ccccc23)nc1C#N	24
COc1ccnc(NC(=S)N2CCN(c3cccc(C(F)(F)F)n3)CC2)c1	12
Fc1cc(Nc2nc(-c3ccncc3)nc3ccccc23)ccc1-c1ccc2[nH]ncc2c1	> 30

SMILES	half-life [min]
CC1=Nc2cc(C(=O)NCCc3ccccc3)ccc2Sc2c(C)ccc(C)c21	1.54
CCN1C(=O)c2ccccc2S(=O)c2ccc(NC(=O)Cc3ccc(F)cc3)cc21 (stereo not drawn)	6.3
CC(=O)Nc1ccc(NC(=O)C(NS(=O)(=O)c2ccc(Br)s2)c2ccccc2)cc1 (stereo not drawn)	8.13
COc1ccc(CNC(=O)c2cnc3ccccc3n2)cc1	9.3
CC(C)CC(C)NC(=O)c1noc(-c2ccc[nH]c2=O)n1 (stereo not drawn)	> 30
Cc1nc2nc(NC(=O)c3ccc(C(C)(C)C)cc3)[nH]n2c(=O)c1Cl	21
COc1ccc(NS(=O)(=O)c2ccc(C)cc2)cc1C(=O)Nc1nc(-c2ccccc2)cs1	12
COCCNCc1ccc(-c2cc3nccc(Oc4ccc(NC(=S)NC(=O)Cc5ccc(F)cc5)cc4F)c3s2)nc1	10.3
Cc1ccccc1C(=O)N1CCc2cc(-c3nc(NC(=O)Cc4ccc5c(c4)OCO5)sc3C)ccc21	15.5
C=CCc1ccc(O)c(-c2ccc(O)c(CC=C)c2)c1	2.36
O=S(=O)(Nc1cccc2cccnc12)c1ccc(NCc2ccc(Br)cc2O)cc1	2.4
COc1cc2cc(CN3CCC(N(C)C)C3)c(-c3cccc(Cl)c3)nc2cc1OC (stereo not drawn)	23.1
Nc1nc2c(s1)C(c1ccc(Br)cc1)CC(=O)N2 (stereo not drawn)	23.8
Cc1cccc(-n2ncc3c2CCCC3NC(=O)c2c(F)ccc(F)c2F)c1C (stereo not drawn)	0.96
COc1ccccc1NC(=O)C1=C(C)Nc2c(C(=O)Nc3cccc(C)c3)cnn2C1c1ccccc1Cl (stereo not drawn)	2.98
COc1ccc(C)cc1Nc1c2c(nc3ccccc13)CCC2	1.55
CO[C@@H]1[C@H](N(C)C(=O)c2ccccc2)C[C@H]2O[C@]1(C)n1c3ccccc3c3c4c(c5c6ccccc6n2c5c31)C(=O)NC4	6.54
NC(=O)C1CCN(c2nccc(-c3ccc4c(c3)OCCCO4)n2)CC1	4.28
NC(=O)C1CCN(c2nc(-c3ccccc3Br)cs2)CC1	2.86
CS(=O)(=O)Nc1cccc(-c2nccc(-n3ccnc3)n2)c1	> 30
COc1cc(OC)cc(-c2csc(N3CCC(C(N)=O)CC3)n2)c1	2.09
NC(=O)C1CCN(c2nc(-c3ccc(N4CCCCC4)nc3)cs2)CC1	17.2
Nc1nc2c(s1)C(c1cccc(F)c1F)CC(=O)N2 (stereo not drawn)	> 30
C=C1C(=O)OC2C1CCC(C)C1(O)C=CC(=O)C21C (stereo not drawn)	> 30
Cc1cc(-c2nnc3n2CCCCC3)c(C)n1-c1ccncc1	14
Cc1ccc(C(=O)Nc2ccc(CN3CCN(C)CC3)c(C(F)(F)F)c2)cc1C#Cc1cnc2cccnn12	> 30

SMILES	half-life [min]
CCOc1ccc(CCNC(=O)c2cc3ccccc3n2Cc2ccccn2)cc1OCC	1.5
CC1=C(C(=O)NC2CCCC2)C(c2nn(C)cc2Cl)N=C(Nc2nc3ccccc3o2)N1 (stereo not drawn)	2.7
COc1ccc(C2c3c(oc4ccc(Cl)cc4c3=O)C(=O)N2CCCN(C)C)cc1OC (stereo not drawn)	> 30
CN(C(=O)CSc1nc2ccc(NC(=O)c3ccc(F)cc3)cc2s1)c1ccccc1	2.04
CC(=O)NCc1ccc(-c2csc(Nc3cc(C)cc(C)c3)n2)o1	> 30
CCOC(=O)Nc1ccc(NCc2ccc(F)cc2)nc1N	> 30
Cc1ccc(S(=O)(=O)NCCC(=O)Nc2nc(-c3ccccc3)cs2)cc1	2.4
NC(=O)C1CCN(c2nccc(-c3ccc(Br)cc3)n2)CC1	19.3
O=C1CCCC2=C1C(c1[nH]ncc1Cl)N=C(Nc1nc3ccc(Cl)cc3o1)N2 (stereo not drawn)	10
O=C(O)c1cccc(-c2cnc3ccccc3c2)c1	> 30
CCCNC(=O)c1ccc2c(c1)N=C(C)c1c(C)ccc(C)c1S2	1.34
NC(=O)C1CCN(c2nc(-c3ccccc3C(F)(F)F)cs2)CC1	5.58
COc1cc2c(c(OC)c1OC)-c1ccc(OC)c(=O)cc1[C@@H](NC(C)=O)CC2	> 30
Cc1cccc(-c2noc([C@@H]3Cc4nc[nH]c4CN3C(=O)CC(C)(C)CC(=O)O)n2)c1	> 30
Cc1ccnc(NC(=S)N2CCC(Nc3cccc(C(F)(F)F)c3)CC2)c1	20
Cc1cc(F)ccc1-c1nc(NCCN=C(N)NC#N)nc2c1ccc(=O)n2-c1c(F)cccc1F	5.23
CN(C)CC/C=C1\c2ccccc2Sc2ccc(Cl)cc21	1.76
Nc1ccccc1OCCn1c(CCNC(=O)C2CCCCC2)nc2ccccc21	2.13
O=C(Cc1ccc(Cl)cc1)Nc1cnccc1C(=O)O	> 30
Cc1nn(CCc2nc(-c3ccc4ccccc4c3)cs2)c2[nH]c(=O)cc(C(F)(F)F)c12	6.4
COc1ccc(NC(=O)c2c(C)cccc2C)cc1[S+](=O)([O-])N(C)C	> 30
CCc1cccc(NC(=O)c2c(C)oc3nc(C)nc(N4CCCC4)c23)c1	1.41
Fc1cc(Nc2nc(-c3ccncc3)nc3ccccc23)ccc1OCC(F)(F)F	28
NC(=O)N1CCCC(C(=O)N2CCCN(c3ccc(F)cc3)CC2)C1 (stereo not drawn)	> 30
Cc1onc(-c2ccccc2)c1C(=O)Nc1nnc(COc2ccc(Cl)cc2)s1	> 30
Cc1cccc(CN2CCN(c3ccccn3)CC2)c1	2.4

SMILES	half-life [min]
COc1ccc(OC)c(-c2cc(C(=O)N3CCN(c4ncccn4)CC3)c3ccccc3n2)c1	7.87
CCc1ccc(-n2nnc(-c3nsc(NC(=O)c4ccccc4Cl)n3)c2C)cc1	10.9
CC(=O)Nc1cccc(-c2nc(-c3c(C)noc3C)cc3c2cc(-c2ccccc2)n3C)c1	> 30
Cn1nnnc1Sc1ncnc2scc(-c3ccc(F)cc3)c12	10.7
Cc1nn2c(c1-c1ccccc1-c1ccccc1)N(Cc1ccc(O)cc1)CCC2	1.97
COc1ccc(CCNc2ncnc3c2c(-c2ccccc2)cn3-c2cccc(Cl)c2)cc1OC	2.33
[2H]C([2H])(Nc1nc(-c2ccccc2C([2H])(C([2H])([2H])[2H])C([2H])([2H])[2H])ncc1C)c1ccc(-n2ccnn2)cc1	13
O=c1cc(-c2nc(Nc3ccc(F)c(F)c3)c3ccccc3n2)cc[nH]1	> 30
N[C@@H](CSCc1ccccc1)C(=O)O	> 30
CCOc1ccc(CCNC(=O)c2cc3ccccc3n2CCN2CCOCC2)cc1OCC	1.6
Cn1cc(S(=O)(=O)N2CCOCC2)cc1C(=O)Nc1ccc(Cl)c(C(F)(F)F)c1	> 30
Cc1cc(-c2nnc3n2CCCCC3)c(C)n1-c1ccc(Cl)cc1	1.9
O=S(=O)(Nc1ccccc1)c1ccc(NCc2ccc(Br)cc2O)cc1	2
COc1cc2c(cc1NC(=O)COc1ccc(Cl)cc1)oc1ccccc12	8.77
CCCCCn1c(CCCNC(=O)c2ccccc2OC)nc2ccccc21	1.31
Cc1ccc(CN2C(=O)C(O)(CC(=O)c3ccc(C)cc3)c3ccccc32)cc1 (stereo not drawn)	1.18
O=C(NC(c1ccccc1)c1cc(Cl)c2cccnc2c1O)c1cccnc1 (stereo not drawn)	18.6
COc1ccc(C2=Nc3ccc(Br)cc3C(c3ccccc3)N2CC(=O)NN)cc1 (stereo not drawn)	8.16
O=C1CCC(CNC(=O)c2nc(-c3ccccc3)cc3[nH]ccc23)N1 (stereo not drawn)	> 30
COC1C(OC(=O)c2ccc(C)[nH]2)C(O)C(Oc2ccc3c(O)c(NC(=O)c4ccc(O)c(CC=C(C)C)c4)c(=O)oc3c2Cl)OC1(C)C (stereo not drawn)	28.3
CC(C)Oc1ccc(-c2ccc(=O)n(CC(=O)NCCc3ccccc3)n2)cc1	1.6
COc1ccc(-c2nc(NC(C)c3ccccc3)c3ccccc3n2)cc1 (stereo not drawn)	20.3
CN1C(=O)C(=O)N2C(=C[C@]3(c4c[nH]c5ccccc45)c4ccccc4N[C@H]23)C1=O	4.83
N#Cc1cnc(NS(=O)(=O)c2ccc(NC(=O)Cc3ccc(F)c(Cl)c3)cc2)s1	> 30
Cc1c(C(=O)OCCOc2ccccc2)[nH]c2c1C(=O)CC(c1ccccc1)C2 (stereo not drawn)	5.25
